From US20230286995A1, “METABOLICALLY STABLE PYRIMIDINYL DIHYDROQUINOXALINONES AS TUBULIN POLYMERIZATION INHIBITORS” (UNIVERSITY OF TENNESSEE RESEARCH FOUNDATION, priority 2022, published 2023)
Read-outs that look alike come from different tables or passages of the source.

Tests used:
M14 = experiment: Cytotoxicity assay (MTS, 72 h); conditions: Homo sapiens
MDA-MB-468 = experiment: Cytotoxicity assay (MTS, 72 h); format: cell-based, human; conditions: Table 1, read-out: IC50 (nM) Breast MDA-MB-468
MDA-MB-453 = experiment: Cytotoxicity assay (MTS, 72 h); format: cell-based, human
MDA-MB-231 = experiment: Cytotoxicity assay (MTS, 72 h); format: cell-based; conditions: Homo sapiens
[1] = tested on: human melanoma and breast cancer cell lines; experiment: Cytotoxicity, all tested cell lines of Table 1; format: cell-based; conditions: melanoma and breast lines of Table 1; for IC50: Homo sapiens, read-out: IC50 values, range over all tested cell lines
A375 = experiment: Cytotoxicity assay (MTS, 72 h); conditions: Homo sapiens;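 note: compounds tested from 0.1 nM up to 3 µM in four replicate wells, with absorbance read at 490 nm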
logP = format: physicochemical; conditions: Table 1; method not described
RPMI-7951 = experiment: Cytotoxicity assay (MTS, 72 h); format: cell-based; conditions: Homo sapiens, Table 1, read-out: IC50 (nM) Melanoma RPMI-7951
PANC-1 = experiment: Cytotoxicity assay (MTS, 72 h); format: cell-based; conditions: Homo sapiens, Table 6, read-out: IC50 (nM) Pancreatic cancer PANC-1
Experimental: Mia PaCa-2 and PANC-1 cells were seeded in 96-well plates at 4000 and 5000 cells per well, respectively.
(§1) Cytotoxicity Assay. […] Each experiment consisted of four replicates.

PC3/TxR = experiment: Cytotoxicity assay (MTS, 72 h); format: cell-based; conditions: Homo sapiens, Table 6, paclitaxel-resistant, read-out: IC50 (nM) Prostate cancer PC3/TxR
Experimental: Biology. Cell culture and Reagents. […] MIA Paca-2 pancreatic cancer cells were cultured in media also supplemented with 2.5% horse serum. PANC-1 and PC-3 were cultured in RPMI 1640 medium (Gibco, Carlsbad, Calif.) supplemented with 10% FBS and 1% antibiotic/antimycotic mixture. […] For biological experiments, pyrimidine dihydroquinoxalinone derivatives were dissolved in DMSO to create 20 mM stock solutions and stored at −20° C. until use.
as §1

PC3 = experiment: Cytotoxicity assay (MTS, 72 h); format: cell-based; conditions: Homo sapiens, PC-3; Table 6; read-out: IC50 (nM) Prostate cancer PC3
Description: as §1

Mia PaCa-2 = experiment: Cytotoxicity assay (MTS, 72 h); format: cell-based; conditions: Homo sapiens, Table 6, read-out: IC50 (nM) Pancreatic cancer Mia PaCa-2
[2] = M14, read-out: IC50 (nM) Melanoma M14
[3] = Homo sapiens, MDA-MB-453, Table 1, read-out: IC50 (nM) Breast MDA-MB-453
[4] = MDA-MB-231, read-out: IC50 (nM) Breast MDA-MB-231, Table 1
[5] = A-375, read-out: IC50 (nM) Melanoma A375, Table 1
[6] = Table 1, read-out: IC50 (nM) Breast MDA-MB-453
[7] = M14, read-out: IC50 (nM) Melanoma Cancer M14
[8] = Homo sapiens, MDA-MB-453, Table 6, read-out: IC50 (nM) Breast Cancer MDA-MB-453
[9] = MDA-MB-231, read-out: IC50 (nM) Breast Cancer MDA-MB-231, Table 6
[10] = A-375, read-out: IC50 (nM) Melanoma Cancer A375, Table 6

Compound	IC50 (M14; [2]) [nM]	IC50 (MDA-MB-468; Homo sapiens, MDA-MB-468) [nM]	IC50 (MDA-MB-453; [3]) [nM]	IC50 (MDA-MB-231; [4]) [nM]	IC50 [1] [nM]	IC50 (A375; [5]) [nM]	logP (logP)	IC50 (RPMI-7951) [nM]	IC50 (MDA-MB-453; [6]) [nM]	IC50 (MDA-MB-468) [nM]	cytotoxic activity [1]	IC50 (M14; [7]) [nM]	IC50 (PANC-1) [nM]	IC50 (MDA-MB-453; [8]) [nM]	IC50 (PC3/TxR) [nM]	IC50 (MDA-MB-231; [9]) [nM]	IC50 (A375; [10]) [nM]	IC50 (PC3) [nM]	IC50 (Mia PaCa-2) [nM]
COc1ccc2c(c1)NC(=O)CN2c1nc(Cl)nc2c1CCC2 [Compound 5l, 4-(2-chloro-6,7-dihydro-5H-cyclopenta[d]pyrimidin-4-yl)-7-methoxy-3,4-dihydroquinoxalin-2(1H)-one]	5.9 ± 1.5	5.6 ± 2.2	3.7 ± 1.2	25.7 ± 6.2	0.4 to 26	5.5 ± 0.7	2.74	6.8 ± 2.5	–	–	–	–	–	–	–	–	–	–	–
COc1ccc2c(c1)NC(=O)CN2c1ncnc2c1CCC2 [Compound 5n, 4-(6,7-dihydro-5H-cyclopenta[d]pyrimidin-4-yl)-7-methoxy-3,4-dihydroquinoxalin-2(1H)-one]	19.1 ± 5.3	15.6 ± 3.8	7.3 ± 1.5	54 ± 9.9	–	13.4 ± 1.9	2.05	14 ± 3.9	–	–	–	–	–	–	–	–	–	–	–
COc1ccc2c(c1)NC(=O)CN2c1nc(Cl)nc2c1CCCC2 [Compound 5o, 4-(2-chloro-5,6,7,8-tetrahydroquinazolin-4-yl)-7-methoxy-3,4-dihydroquinoxalin-2(1H)-one]	> 1000	> 1000	–	> 1000	–	> 1000	3.16	> 1000	256 ± 59.5	–	–	–	–	–	–	–	–	–	–
COc1ccc2c(c1)NC(=O)CN2c1nc(Cl)nc2c1COC2 [Compound 5p, 4-(2-chloro-5,7-dihydrofuro[3,4-d]pyrimidin-4-yl)-7-methoxy-3,4-dihydroquinoxalin-2(1H)-one]	23.3 ± 3	–	–	36.8 ± 4.5	19 to 37	31.8 ± 4.4	1.47	27.2 ± 3.9	19.3 ± 3.5	22.8 ± 4.6	–	–	–	–	–	–	–	–	–
COc1ccc2c(c1)NC(=O)CN2c1nc(Cl)nc(C)c1C [Compound 5q, 4-(2-chloro-5,6-dimethylpyrimidin-4-yl)-7-methoxy-3,4-dihydroquinoxalin-2(1H)-one]	> 1000	> 1000	> 1000	> 1000	–	> 1000	2.76	> 1000	–	–	inactive	–	–	–	–	–	–	–	–
COc1ccc2c(c1)NC(=O)CN2c1nc(C)nc(C)c1C [Compound 5r, 7-methoxy-4-(2,5,6-trimethylpyrimidin-4-yl)-3,4-dihydroquinoxalin-2(1H)-one]	9.8 ± 1.7	–	–	18 ± 2.7	–	9 ± 1	2.97	8.9 ± 1.5	4.3 ± 0.9	5.2 ± 2.2	–	–	–	–	–	–	–	–	–
COc1ccc2c(c1)NC(=O)CN2c1cc(C)nc2cccnc12 [Compound 5s, 7-methoxy-4-(2-methyl-1,5-naphthyridin-4-yl)-3,4-dihydroquinoxalin-2(1H)-one]	18.3 ± 2.9	18.5 ± 4.1	12.9 ± 2.3	23.9 ± 4.1	13 to 24	15 ± 2.1	1.96	14.4 ± 2.4	–	–	–	–	–	–	–	–	–	–	–
CCNc1nc(N2CC(=O)Nc3cc(OC)ccc32)c2cccnc2n1 [Compound 5u, 4-(2-(ethylamino)pyrido[2,3-d]pyrimidin-4-yl)-7-methoxy-3,4-dihydroquinoxalin-2(1H)-one]	5.4 ± 0.7	–	4.5 ± 0.9	6.7 ± 1.2	0.4 to 26	5.8 ± 1	2.51	4.8 ± 0.8	–	10.5 ± 1.6	–	–	–	–	–	–	–	–	–
COc1ccc2c(c1)NC(=O)CN2c1nc(SC)nc2c1CCC2 [Compound 10, 7-methoxy-4-(2-(methylthio)-6,7-dihydro-5H-cyclopenta[d]pyrimidin-4-yl)-3,4-dihydroquinoxalin-2(1H)-one]	–	–	–	–	–	–	–	–	–	–	–	3.2 ± 0.5	3.4 ± 0.6	1.4 ± 0.6	1.6 ± 0.2	4.3 ± 0.7	3.4 ± 0.5	2.4 ± 0.4	3.9 ± 0.6
COc1ccc2c(c1)NC(=O)CN2c1nc(OC)nc2c1CCC2 [Compound 12b, 7-methoxy-4-(2-methoxy-6,7-dihydro-5H-cyclopenta[d]pyrimidin-4-yl)-3,4-dihydroquinoxalin-2(1H)-one]	–	–	–	–	–	–	–	–	–	–	–	5.3 ± 1.1	9.4 ± 1.5	3.4 ± 0.8	4.7 ± 0.7	7.5 ± 1.5	~3.2	7.2 ± 1.2	9 ± 1.3
COc1ccc2c(c1)NC(=O)CN2c1nc(N)nc2c1CCC2 [Compound 12c, 4-(2-amino-6,7-dihydro-5H-cyclopenta[d]pyrimidin-4-yl)-7-methoxy-3,4-dihydroquinoxalin-2(1H)-one]	–	–	–	–	–	–	–	–	–	–	–	1.7 ± 0.3	5.5 ± 1	1.4 ± 0.4	2.3 ± 0.3	2.3 ± 0.5	~2.01	3.8 ± 0.6	5 ± 0.7
COc1ccc2c(c1)NC(=O)CN2c1nc(N2CCOCC2)nc2c1CCC2 [Compound 12e, 7-methoxy-4-(2-morpholino-6,7-dihydro-5H-cyclopenta[d]pyrimidin-4-yl)-3,4-dihydroquinoxalin-2(1H)-one]	–	–	–	–	–	–	–	–	–	–	–	18.3 ± 3.7	56.2 ± 9	17.6 ± 4	14.4 ± 2.2	25.8 ± 4.6	~13.6	23.9 ± 3.6	44.4 ± 7.1
COc1ccc2c(c1)NC(=O)CN2c1nc(-n2ccnc2)nc2c1CCC2 [Compound 12h, 4-(2-(1H-imidazol-1-yl)-6,7-dihydro-5H-cyclopenta[d]pyrimidin-4-yl)-7-methoxy-3,4-dihydroquinoxalin-2(1H)-one]	–	–	–	–	–	–	–	–	–	–	–	5.8 ± 1.2	11.5 ± 2.3	4.5 ± 1.2	4.7 ± 0.7	8.4 ± 1.5	~5.7	8.2 ± 1.4	15.5 ± 2.5
COc1ccc2c(c1)NC(=O)CN2c1nc(N=C=S)nc2c1CCC2 [Compound 12l, 4-(2-isothiocyanato-6,7-dihydro-5H-cyclopenta[d]pyrimidin-4-yl)-7-methoxy-3,4-dihydroquinoxalin-2(1H)-one]	–	–	–	–	–	–	–	–	–	–	–	2.6 ± 0.4	10.7 ± 2.3	2.9 ± 0.6	4.8 ± 0.7	4.9 ± 0.8	~3.3	6.3 ± 0.8	7.3 ± 1.2
COc1ccc2c(c1)NC(=O)CN2c1nc(NCCO)nc2c1CCC2 [Compound 12m, 4-(2-((2-hydroxyethyl)amino)-6,7-dihydro-5H-cyclopenta[d]pyrimidin-4-yl)-7-methoxy-3,4-dihydroquinoxalin-2(1H)-one]	–	–	–	–	–	–	–	–	–	–	–	7 ± 1	43.1 ± 8.2	6.4 ± 1.6	15 ± 1.6	8.6 ± 1.2	~8.6	14.8 ± 1.8	23.6 ± 3.5
